“Also recorded” adds a separate entry of the source.
Assays:
[1] = system: TNBS-induced Crohn's Disease model; assay: TNBS-induced Crohn's Disease model; assay type: in vivo
Experimental: FIG. 12. Effects of Compound 1 and Compound 2 on colon histology in the TNBS-induced Crohn's Disease model. On Day 0, female Sprague-Dawley rats were administered TNBS using a stainless steel catheter that was inserted into the colon (8 cm proximal to the anus; 1.0 mL of solution containing 30 mg TNBS and 20% ethanol in PBS). On Days 0-5 animals received daily oral gavage of Vehicle (described in FIG. 7) or 50 mg/kg of Compound 1 or Compound 2 in Vehicle. On Day 6, the colons were removed, weighed and scored for macroscopic damage. The distal 6 cm were transected for subsequent histology and biochemical analyses. In this model, the macroscopic score is an index of histologic damage to the colon which increases as the disease progresses.
FIG. 13. Effects of Compound 1 and Compound 2 on colon weight in the TNBS-induced Crohn's Disease model. Colon weights were measured for the rats described in FIG. 12. Values represent the mean±std. dev. for 5-6 rats per group. In this model, colon weight increases as the disease progresses due to progressive inflammation-mediated edema.
FIG. 14. Effects of Compound 2 on neutrophil infiltration into the colon in the TNBS-induced Crohn's Disease model. Neutrophil infiltration was evaluated in the rats described in FIG. 12. Values represent the mean±std. dev. for 5-6 rats per group. In this model, MPO activity in the colon increases as a result of neutrophil infiltration into the colon as the disease progresses.
The trinitrobenzene sulfonic acid (TNBS) model in rats provides a rapid, reliable and reproducible IBD model that mimics the manifestations of Crohn's Disease. Application of the hapten TNBS to the colon in the presence of ethanol results in transmural infiltrative disease that is limited to the colon and appears to be an IL-12-driven, Th1-mediated immunologic response. […] TNBS induces measurable injury within 2 to 3 days, peak acute inflammation within a week, and gradual progression into chronic inflammation lasting about 2 months.
To test the efficacy of the Compounds, groups of female Sprague-Dawley rats were administered TNBS on Day 0 and treated with vehicle (as the negative control group), Compound 1 or Compound 2 on Days 0-5 by oral gavage at a dose of 50 mg/kg/day. […] Disease progression was evaluated by macroscopic score, colon weight and colon MPO activity at sacrifice. The macroscopic score measures macroscopic damage within the distal 6 cm of the colon using a system that considers the extent of and number of ulcerations.

[2] = Conversion of Compound 2 to Compound 1 in living mice; plasma levels of Compound 1 by HPLC; assay type: in vivo
Experimental: FIG. 4. Conversion of Compound 2 into Compound 1 in vivo. Balb/C female mice, 6-8 weeks old, were dosed with either Compound 1 (●) or Compound 2 (♦) at 50 mg/kg by intravenous injection. Mice were euthanized at the indicate times after injection, and blood was harvested by cardiac puncture and plasma was prepared. The plasma was then extracted and analyzed for Compound 1 levels by HPLC.
To extend the in vitro studies described above, the ability of Compound 2 to be converted to Compound 1 in an in vivo test system was determined. In these experiments, Compound 1 or Compound 2 was dissolved in PEG400 and administered to female Balb/C mice at a dose of 50 mg/kg by intravenous injection. Mice were sacrificed and blood was removed via cardiac puncture at 2 minutes, 15 minutes, 30 minutes or 60 minutes. The concentration of Compound 1 in the blood of the animals at each of the time points was determined using HPLC with UV detection as described in the previous Example. […] In the case of administration of Compound 2, plasma concentrations of Compound 1 rose during the first 30 minutes and then were decreased with a half-time of clearance of approximately 20 minutes.

[3] = system: Murine JC mammary adenocarcinoma cells; assay: Cytotoxicity, MTS cell viability assay; assay type: cell-based; settings: 72 hours
Source text: FIG. 5. Inhibition of tumor cell proliferation by Compound 1 and Compound 2. Murine JC mammary adenocarcinoma cells were exposed to the indicated concentrations of either Compound 1 (▪) or Compound 2 (▴) for 72 hr. At the end of the exposure, the number of viable tumor cells was quantified using the MTS assay. Values represent the fraction of surviving cells compared with DMSO-(vehicle)-treated control cells.
To further assess the biological efficacies of the Compounds in intact cells, Compound 1 and Compound 2 were evaluated for cytotoxicity using a murine breast cancer cell line. These experiments followed methods that have been extensively used. The cells were treated with varying doses of the test Compound for 72 hours, and then cell viability was measured using CellTiter 96® AQueous Non-Radioactive Cell Proliferation Assay (MTS) available from Promega Corporation. Values represent the mean±std. dev. percentage of cells that survive at each of the indicated concentrations of Compound 1 or Compound 2. […] However, the extent of cell killing and the potency for cell killing were greater for Compound 2 than Compound 1.

DSS-colitis model = assay: Acute DSS-colitis model of inflammatory bowel disease; assay type: in vivo, C57BL/6 mice; settings: for colon length (contraction of the colon), ester prodrugs: 4-5 per group (Example 17, FIG. 10)
Experimental: FIG. 7. Effects of Compound 1 and Compound 2 on the Disease Activity Index (DAI) in the acute DSS-colitis model. […] After 6 days, the DAI was calculated for each group. Values represent the mean±std. dev. for 5-6 mice per group. […] FIG. 8. Effects of Compound 1 and Compound 2 on colon length in the acute DSS-colitis model. […] After 6 days, the animals were sacrificed and the length of the colon was measured. Values represent the mean±std. dev. for 6-7 mice per group. In this model, colon length decreases as the disease progresses. […] FIG. 9. Effects of Compound 1 and Compound 2 on neutrophil infiltration into the colon in the acute DSS-colitis model. […] After 6 days, the animals were sacrificed and the colons were harvested. Myeloperoxidase activity (MPO) was measured and normalized by the protein concentration of the samples. Values represent the mean±std. dev. for 6-7 mice per group. In this model, MPO activity in the colon increases as a result of neutrophil infiltration into the colon as the disease progresses. […] FIG. 10. Effects of ester prodrugs on colon length in the acute DSS-colitis model. C57BL/6 mice were treated for 6 days as follows: 2% DSS in the drinking water and daily oral administration of Vehicle (described in FIG. 7); or 2% DSS in the drinking water and oral administration of 50 mg/kg the indicated ester prodrugs in Vehicle. After 6 days, the animals were sacrificed and the length of the colon was measured. Values represent the mean±std. dev. for 4-5 mice per group. In this model, colon length decreases as the disease progresses. […] FIG. 11. Effects of ester prodrugs on neutrophil infiltration into the colon in the acute DSS-colitis model. C57BL/6 mice were treated for 6 days as follows: 2% DSS in the drinking water and daily oral administration of Vehicle (described in FIG. 7); or 2% DSS in the drinking water and oral administration of 50 mg/kg the indicated ester prodrugs in Vehicle. After 6 days, the animals were sacrificed and the length of the colon was measured. Values represent the mean±std. dev. for 4-5 mice per group. In this model, MPO activity in the colon increases as a result of neutrophil infiltration into the colon as the disease progresses. […] In these experiments, male C57BL/6 mice were provided with standard rodent diet and water ad libitum. After their acclimation, the animals were randomly divided into groups of 5 or 6 for DSS (40,000 MW from ICN Biomedicals, Inc., Aurora, Ohio)- and drug-treatment. The Compounds were dissolved in a Vehicle consisting of 46.7% PEG 400, 46.7% of a solution of 0.375% Tween 80 in saline and 6.6% ethanol, and given once daily (starting on Day 0) by oral gavage in a volume of 0.1 mL per dose. The mice were given normal drinking water or 2% DSS (starting on Day 0) and treated orally with Compound 1 or Compound 2 at a dose of 50 mg/kg daily. The body weight of each animal was measured each day, and the Disease Activity Index (DAI) was scored for each animal on Day 6. On Day 6, the animals were sacrificed by cervical dislocation and the entire colon was removed and measured to the nearest 0.1 cm. The distal 3 cm of the colons were used for biochemical analyses of inflammation markers.

[4] = TNBS Day 0, 50 mg/kg/day oral gavage Days 0-5, Day 6, female Sprague-Dawley rats
[5] = 2% DSS, 50 mg/kg oral, 6 days, C57BL/6 mice

Compound: O=C(NCCc1ccc(O)c(O)c1)C12CC3CC(C1)CC(c1ccc(Cl)cc1)(C3)C2 [Compound 1, 3-(4-Chlorophenyl)-adamantane-1-carboxylic acid [2-(3,4-dihydroxyphenyl)-ethyl]amide]
- Compound-related toxicities ([1]; 50 mg/kg/day oral gavage Days 0-5, rats sacrificed on Day 6): no Compound-related toxicities apparent
- Macroscopic Score of colon damage [1, 4]: but not Compound 1, reduced the Macroscopic Score; also recorded: much less active
- colon weight [1, 4]: but not Compound 1 reduced the elevation of the colon weight; also recorded: much less active
- time of maximum plasma concentration of Compound 1 ([2]; 50 mg/kg intravenous, female Balb/C mice, sampling at 2, 15, 30, 60 minutes): earliest time point
- half-time for clearance of Compound 1 from plasma ([2]; 50 mg/kg of the named compound by intravenous injection in PEG400, female Balb/C mice, Compound 1 measured): approximately 5 minutes
- inhibition of tumor cell proliferation (cell viability) [3]: can inhibit tumor cell proliferation
- Disease Activity Index (DAI) (DSS-colitis model; 2% DSS in drinking water, 50 mg/kg daily oral, Day 6, C57BL/6 mice): reduced the intensity of the IBD manifestations
- colon myeloperoxidase (MPO) activity (neutrophil infiltration) (DSS-colitis model; 2% DSS, 50 mg/kg daily oral, Day 6, C57BL/6 mice (Example 16, FIG. 9)): markedly attenuated
- colon length (DSS-colitis model; 2% DSS, 50 mg/kg oral, Day 6, C57BL/6 mice (Example 16, FIG. 8)): colons of significantly longer length

Compound: CCC(=O)Oc1ccc(CCNC(=O)C23CC4CC(C2)CC(c2ccc(Cl)cc2)(C4)C3)cc1OC(=O)CC [Compound 3, Propionic acid 2-propionyloxy-5-(2-{[3-(4-chlorophenyl)-adamantane-1-carbonyl]-amino}ethyl)phenyl ester]
- melting point: 114 to 115 °C
- colon length (contraction of the colon), ester prodrugs (DSS-colitis model; [5]): effective in preventing the contraction of the colons

Compound: CC(C)C(N)C(=O)Oc1cc(CCNC(=O)C23CC4CC(C2)CC(c2ccc(Cl)cc2)(C4)C3)ccc1O (stereo not drawn) [Compound 6, 2-Amino-3-methyl-butyric acid 5-(2-{[3-(4-chlorophenyl)adamantane-1-carbonyl]amino}ethyl)-2-hydroxyphenyl ester]
- colon length (contraction of the colon), ester prodrugs (DSS-colitis model; [5]): effective in preventing the contraction of the colons
- colonic MPO activity, ester prodrugs (DSS-colitis model; 2% DSS, 50 mg/kg oral, 6 days, C57BL/6 mice, 4-5 per group (Example 17, FIG. 11)): all of the Compounds except Compound 6 substantially prevented the elevation of colonic MPO activity

Compound: CCCC(=O)Oc1ccc(CCNC(=O)C23CC4CC(C2)CC(c2ccc(Cl)cc2)(C4)C3)cc1OC(=O)CCC [Compound 4, Butyric acid 2-butyryloxy-5-(2-{[3-(4-chlorophenyl)-adamantane-1-carbonyl]-amino}ethyl)phenyl ester]
- melting point: 78 to 80 °C
- colon length (contraction of the colon), ester prodrugs (DSS-colitis model; 2% DSS, 50 mg/kg oral, 6 days, C57BL/6 mice, 50 mg/kg): effective in preventing the contraction of the colons; also recorded: slightly less effective
